Experimental data published in US20090163579A1, “Novel use of nutraceutical compositions” (priority 2006, published 2009).

Tested on: C57BLKS/J db/db mice
Experiment: 3 months feeding study on muscle mass in db/db mice (NMR muscle mass, body weight, food intake)
Type: in vivo
Settings: for effect on muscle loss (in words) / muscle mass increase: db/db mice, 3 months of treatment; for effect on muscle loss (in words) / muscle mass increase / BW (g), change from baseline / Muscle (g), change from baseline: 0.08% of diet; for muscle mass increase: control reduced by 2%; for BW (g), change from baseline / Muscle (g), change from baseline / BW (g), 5 months old mice / Muscle (g), 5 months old mice: male db/db mice, after 3 months of treatment; for BW (g), 5 months old mice / Muscle (g), 5 months old mice: 0.08% of diet as feed-ad-mix; for Muscle (g), 5 months old mice: total muscle mass by NMR
Method: The efficacy of resveratrol, EGCG as well as the combination of both compounds on muscle mass was tested in a 3 months feeding study in C57BLKS/J db/db mice (n=20/group). C57BLKS/J db/db mice suffer from severe metabolic disorder due to a defect in the leptin receptor and loss muscle mass as they age. Muscle wasting has been associated with chronic metabolic derangements. Moreover, muscle wasting induced by a variety of means in both rodents and humans results in similar changes in muscle anatomy, cross-sectional area, function, fiber type switching, contractile protein expression, and histology. […] These agents include anabolic steroids, growth hormone, insulin-like growth factor 1, and beta adrenergic agonists. […] Therefore, the rodent model can be used to evaluate the efficacy of compounds inhibiting muscle wasting.
Male db/db mice were obtained from Jackson Laboratory (Bar Harbor, Me., USA). Adult mice at the age of 8 weeks were used in the experiment. Mice were housed individually in plastic cages with bedding and allowed free access to standard rodent food and tap water. The animal rooms were controlled for temperature (24° C.), humidity (55%), and light (12-h light-dark cycle). The animals were randomized into four groups. Resveratrol and EGCG were administered as feed-ad-mix. Corn cellulose (1% of diet) served as a carrier substance for resveratrol and EGCG as well as a placebo when used alone. Group 1 received placebo, group 2 received a diet containing 0.08% of resveratrol; group 3 received a diet containing 0.08% of EGCG; and group 4 received a diet containing 0.08% of resveratrol and 0.08% of EGCG. Body weight and food intake were determined over the course of the study. Total muscle mass was determined by nuclear magnetic resonance (NMR) measurement after 3 months of treatment. There was no difference in food intake between the groups over the study period.

Compound | effect on muscle loss (in words) | muscle mass increase | BW (g), change from baseline | Muscle (g), change from baseline | BW (g), 5 months old mice | Muscle (g), 5 months old mice
Oc1ccc(C=Cc2cc(O)cc(O)c2)cc1 [Resveratrol, resveratrol] | prevents muscle loss | 6% | 3.9 g | 1.0 g | 34.2 g | 17.0 g
(−)-epigallocatechin gallate [EGCG] | prevents muscle loss | 3% | 1.0 g | 0.5 g | 31.4 g | 16.2 g
